According to ChEMBL document CHEMBL1201862, “PubChem BioAssay data set” (2004):
Calls of active or inactive are those of the source.

What was measured:
[1] = general mammalian cell viability loss – inhibitor set, cherry-pick, set 2, cytotoxicity control for miR-122 modulator project, dose response (AID 720697); type: functional, cell-based
[2] = OVCAR-3 cell viability loss – plate reader, dry powder samples, PAX8 inhibitor project, dose response (AID 743044); type: functional, cell-based
[3] = OVCAR8 cell viability loss – plate reader, dry powder samples, PAX8 project, dose response (AID 743197); type: functional, cell-based; conditions: OVCAR-8
[4] = A2780 cell killing – plate reader, dry powder samples, cytotoxicity control, dose response (AID 743046); type: functional, cell-based
[5] = target: Paired box protein Pax-8 (Homo sapiens, UniProt Q06710); test: PAX8 transcriptional activity inhibition in RMG-I – RMG-I cells, luciferase, cherry-pick, dose response (AID 687027); type: functional, cell-based;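 note: luciferase reporter driven by Pax8 target thyroperoxidase promoter measured by SteadyGlo luminescence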
[6] = viability loss in CEM21 cells – cell-based, CellTiter-Glo luminescence, cherry-picked, cytotoxicity control for viral fusion inhibitor project, dose response (AID 652042); type: functional;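 note: potency for signal decrease meaning cytotoxicity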
[7] = potency of ADAM10 substrate cleavage blockers – biochemical, QFRET, dose response (AID 743254);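 note: ADAM10 enzyme with the DM2 quenched FRET peptide as substrate; EDANS fluorescence gain as the protease cuts the substrate; inhibitor potency against ADAM10 proteolytic activity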
[8] = target: Disintegrin and metalloproteinase domain-containing protein 17 (Homo sapiens, UniProt P78536); test: inhibition of ADAM17 substrate cleavage – biochemical, quenched FRET substrate, counter-screen for ADAM10 exosite inhibitor project, dose response (AID 743253)
[9] = target: Albumin (Bos taurus, UniProt P02769); test: Counterscreen for inhibitors of T-cell receptor (TCR)-CD3 interaction: Fluorescence-based biochemical high throughput dose response assay to identify inhibitors of T-cell receptor (TCR)-CD3 interaction using a TAMRA-labeled BSA probe.; type: functional
[10] = system: Streptococcus; test: GAS UMAA2166 growth inhibition – luminescence, BacTiterGlo, counter-screen for streptokinase expression inhibitor project, dose response (AID 1915); type: functional, organism-based;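 note: potency for reduction of bacterial viability or growth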
[11] = target: T1, Serine/threonine-protein phosphatase (Candida dubliniensis (strain CD36 / CBS 7987 / NCPF 3949 / NRRLY-17841) (Yeast), UniProt B9W6M3); test: blockers of CaCl2-induced CDRE-lacZ signaling – S. cerevisiae, luminescence, secondary, dose response (AID 2388); type: functional, cell-based;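 note: yeast reporter cells carrying a calcineurin-responsive lacZ construct stimulated with calcium chloride; luminescent beta-galactosidase reporter signal in whole cells rather than isolated phosphatase activity; potency for inhibition where a drop in reporter signal means calcineurin blockade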
T1 sequence (B9W6M3 whole entry): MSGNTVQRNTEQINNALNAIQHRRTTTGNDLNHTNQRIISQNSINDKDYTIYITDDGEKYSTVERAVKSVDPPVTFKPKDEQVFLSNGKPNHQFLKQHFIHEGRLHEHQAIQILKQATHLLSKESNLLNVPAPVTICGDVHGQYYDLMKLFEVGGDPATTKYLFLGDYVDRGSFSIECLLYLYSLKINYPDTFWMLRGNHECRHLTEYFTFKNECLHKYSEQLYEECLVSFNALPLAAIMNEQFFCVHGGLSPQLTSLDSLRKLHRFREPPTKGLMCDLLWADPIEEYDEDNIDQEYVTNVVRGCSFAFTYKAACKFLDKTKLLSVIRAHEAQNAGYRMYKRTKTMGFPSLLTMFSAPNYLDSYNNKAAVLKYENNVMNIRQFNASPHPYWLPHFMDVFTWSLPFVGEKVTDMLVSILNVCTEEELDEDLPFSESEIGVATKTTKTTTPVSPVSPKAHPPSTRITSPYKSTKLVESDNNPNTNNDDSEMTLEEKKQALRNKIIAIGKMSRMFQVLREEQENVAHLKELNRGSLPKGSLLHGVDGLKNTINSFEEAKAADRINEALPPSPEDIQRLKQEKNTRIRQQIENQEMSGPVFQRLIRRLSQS

[12] = system: Streptococcus sp. 'group A'; test: Streptococcus pyogenes SK(-)GAS viability under kanamycin – luminescence, BacTiterGlo, confirmation, counter-screen for streptokinase expression inhibitor project, dose response (AID 1900); type: functional, organism-based
[13] = target: Beta-galactosidase (Escherichia coli, UniProt Q8VNN2); type: functional
[14] = NIH-3T3 fibroblast cytotoxicity, dose response, cytotoxicity control, cell-based, fluorescence, Alamar Blue, secondary assay (AID 2327); type: functional;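 note: NIH-3T3 mouse fibroblasts cultured with fluconazole at 8 µg/mL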
[15] = system: Vero; test: cells; type: functional; conditions: Chlorocebus sabaeus
[16] = target: T2, Kappa-type opioid receptor (Homo sapiens, UniProt P41145); type: functional
[17] = fluconazole-exposed Candida albicans growth modulators – fluorescence, retest, confirmation (AID 2467); type: functional, cell-based
[18] = target: Heat shock protein HSP 90-alpha (Homo sapiens, UniProt P07900); type: functional, organism-based
[19] = target: ATP-dependent molecular chaperone HSP82 (Candida albicans (strain WO-1) (Yeast), UniProt C4YTQ8); test: steroid-induced GRE reporter decrease in yeast – S. cerevisiae, luminescence, Hsp90 inhibitor project, dose response (AID 2400); type: functional, cell-based;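 note: beta-galactosidase luminescence from glucocorticoid response element reporter as proxy for Hsp90 function; inhibitor potency where signal loss means Hsp90 inhibition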
[20] = target: T2, Kappa-type opioid receptor; type: functional; remark: listed apart in the source
[21] = target: Matrix metalloproteinase-14 (Homo sapiens, UniProt P50281); test: Dose Response confirmation of uHTS hits for a small molecule inhibitors of MT1-MMP activation in a fluorescence assay set 1.; type: functional
[22] = MITF Orthogonal Assay: SK-MEL-5 CTG Assay Measured in Cell-Based System Using Plate Reader - 2084-02_Inhibitor_Dose_DryPowder_Activity_Set7.; type: functional
[23] = MITF: Counter assay: A375 proliferation Measured in Cell-Based System Using Plate Reader - 2084-03_Inhibitor_Dose_DryPowder_Activity_Set8.; type: functional; conditions: A-375
[24] = inhibitors of TRPM1-promoter reporter in SK-MEL-5 – cell-based, luciferase, dry powder, set 8, MITF inhibitor project, dose response (AID 624430); type: functional
[25] = target: fMet-Leu-Phe receptor (Homo sapiens, UniProt P21462); test: formyl peptide receptor binders – dose response (AID 519); type: functional
[26] = target: T3, Corticotropin-releasing factor receptor 2/Corticotropin-releasing factor-binding protein (Homo sapiens, UniProt P24387+Q13324); test: activators of CRF receptor 2 with binding protein – uHTS hits, confirmation (AID 602473); type: functional; conditions: read-out: EC50_Mean
T3 sequence (Q13324 whole entry): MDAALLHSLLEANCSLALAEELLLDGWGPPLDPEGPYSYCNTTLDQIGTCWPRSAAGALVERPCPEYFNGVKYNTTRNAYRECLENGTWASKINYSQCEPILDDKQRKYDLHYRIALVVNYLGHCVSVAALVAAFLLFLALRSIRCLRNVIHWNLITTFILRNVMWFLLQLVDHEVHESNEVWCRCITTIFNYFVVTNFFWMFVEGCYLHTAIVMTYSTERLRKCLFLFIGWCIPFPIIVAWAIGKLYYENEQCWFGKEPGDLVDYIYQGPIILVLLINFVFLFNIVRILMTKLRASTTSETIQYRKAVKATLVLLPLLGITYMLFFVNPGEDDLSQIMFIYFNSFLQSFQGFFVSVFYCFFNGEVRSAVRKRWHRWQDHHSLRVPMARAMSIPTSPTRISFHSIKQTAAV
T3 sequence (P24387 whole entry): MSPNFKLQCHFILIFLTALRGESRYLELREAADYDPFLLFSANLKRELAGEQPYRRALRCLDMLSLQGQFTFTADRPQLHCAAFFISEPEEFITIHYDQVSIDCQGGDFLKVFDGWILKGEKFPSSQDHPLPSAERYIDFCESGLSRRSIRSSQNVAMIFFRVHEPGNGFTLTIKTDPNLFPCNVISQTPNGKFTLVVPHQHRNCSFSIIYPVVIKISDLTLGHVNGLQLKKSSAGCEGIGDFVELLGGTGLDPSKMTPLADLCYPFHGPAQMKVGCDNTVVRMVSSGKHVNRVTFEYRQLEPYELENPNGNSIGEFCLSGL

[27] = target: FAD-linked sulfhydryl oxidase ALR (Homo sapiens, UniProt P55789); test: ALR-catalysed DTT oxidation blockers – biochemical, H2O2 detection, luminescence, cherry-pick, dose response (AID 493248)
[28] = target: T3, Corticotropin-releasing factor receptor 2/Corticotropin-releasing factor-binding protein; test: Dose Response confirmation of uHTS hits for small molecule antagonists of the CRF-binding protein and CRF-R2 receptor complex.; type: functional; conditions: read-out: IC50_Mean
[29] = target: T4, Oxysterols receptor LXR-beta (Homo sapiens, UniProt P55055); type: functional, cell-based;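 note: agonist activity at LXR measured by a cell-based luminescence readout across a dose range, run as a counterscreen for daf-12 agonists; HEK293 cells with Gal4-LXR fusion and GAL4-driven luciferase reporter; potency for activation of Gal4-LXR reporter so compounds are agonists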
T4 sequence (P55055 whole entry): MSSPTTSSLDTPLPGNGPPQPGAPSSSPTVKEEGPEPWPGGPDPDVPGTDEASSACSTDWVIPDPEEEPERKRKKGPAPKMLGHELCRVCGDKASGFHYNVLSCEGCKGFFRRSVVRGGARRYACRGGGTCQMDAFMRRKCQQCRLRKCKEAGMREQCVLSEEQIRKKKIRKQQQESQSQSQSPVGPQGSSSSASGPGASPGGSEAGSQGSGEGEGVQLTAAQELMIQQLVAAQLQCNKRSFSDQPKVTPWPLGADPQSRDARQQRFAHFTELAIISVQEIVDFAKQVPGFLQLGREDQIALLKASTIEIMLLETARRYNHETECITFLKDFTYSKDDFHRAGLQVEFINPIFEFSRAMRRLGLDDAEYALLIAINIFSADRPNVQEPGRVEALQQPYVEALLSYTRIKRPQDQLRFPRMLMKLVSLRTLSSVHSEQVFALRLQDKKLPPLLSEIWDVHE

T2 sequence (P41145 whole entry): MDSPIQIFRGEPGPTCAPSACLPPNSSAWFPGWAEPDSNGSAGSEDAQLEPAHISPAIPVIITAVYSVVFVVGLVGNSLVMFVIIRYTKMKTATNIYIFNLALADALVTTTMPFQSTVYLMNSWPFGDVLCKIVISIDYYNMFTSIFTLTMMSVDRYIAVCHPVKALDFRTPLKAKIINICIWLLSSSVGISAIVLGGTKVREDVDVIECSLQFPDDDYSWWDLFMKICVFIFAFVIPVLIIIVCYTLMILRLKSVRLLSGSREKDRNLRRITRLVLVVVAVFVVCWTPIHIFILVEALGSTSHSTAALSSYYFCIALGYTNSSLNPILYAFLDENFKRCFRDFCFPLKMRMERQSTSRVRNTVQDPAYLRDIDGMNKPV
Sequence of Beta-galactosidase (Q8VNN2 whole entry): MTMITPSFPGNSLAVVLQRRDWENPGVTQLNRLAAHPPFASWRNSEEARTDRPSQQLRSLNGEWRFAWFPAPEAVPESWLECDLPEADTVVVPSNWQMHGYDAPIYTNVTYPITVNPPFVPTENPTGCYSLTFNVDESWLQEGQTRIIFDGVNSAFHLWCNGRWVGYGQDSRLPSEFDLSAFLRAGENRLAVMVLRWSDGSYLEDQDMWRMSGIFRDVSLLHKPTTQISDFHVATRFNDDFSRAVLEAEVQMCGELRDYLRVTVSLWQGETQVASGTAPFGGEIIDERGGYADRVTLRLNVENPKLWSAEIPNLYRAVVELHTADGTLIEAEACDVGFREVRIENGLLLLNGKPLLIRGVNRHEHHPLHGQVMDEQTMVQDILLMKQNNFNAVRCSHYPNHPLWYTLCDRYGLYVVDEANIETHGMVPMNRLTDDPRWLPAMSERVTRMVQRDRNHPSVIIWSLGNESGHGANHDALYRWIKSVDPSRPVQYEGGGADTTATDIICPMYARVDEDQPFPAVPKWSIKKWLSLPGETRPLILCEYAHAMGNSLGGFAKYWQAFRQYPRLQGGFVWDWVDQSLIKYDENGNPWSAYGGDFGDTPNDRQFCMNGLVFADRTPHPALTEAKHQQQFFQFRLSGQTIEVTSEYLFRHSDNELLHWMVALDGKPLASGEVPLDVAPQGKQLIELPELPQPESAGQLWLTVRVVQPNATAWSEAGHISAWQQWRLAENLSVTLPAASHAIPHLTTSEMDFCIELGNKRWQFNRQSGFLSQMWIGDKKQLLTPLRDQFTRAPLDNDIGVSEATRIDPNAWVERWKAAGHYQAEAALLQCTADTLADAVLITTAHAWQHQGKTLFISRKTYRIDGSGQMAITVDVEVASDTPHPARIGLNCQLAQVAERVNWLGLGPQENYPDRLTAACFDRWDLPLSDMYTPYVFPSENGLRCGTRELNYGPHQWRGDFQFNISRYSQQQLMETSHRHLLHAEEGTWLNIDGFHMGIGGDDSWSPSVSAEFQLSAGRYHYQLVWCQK
Sequence of fMet-Leu-Phe receptor (P21462 whole entry): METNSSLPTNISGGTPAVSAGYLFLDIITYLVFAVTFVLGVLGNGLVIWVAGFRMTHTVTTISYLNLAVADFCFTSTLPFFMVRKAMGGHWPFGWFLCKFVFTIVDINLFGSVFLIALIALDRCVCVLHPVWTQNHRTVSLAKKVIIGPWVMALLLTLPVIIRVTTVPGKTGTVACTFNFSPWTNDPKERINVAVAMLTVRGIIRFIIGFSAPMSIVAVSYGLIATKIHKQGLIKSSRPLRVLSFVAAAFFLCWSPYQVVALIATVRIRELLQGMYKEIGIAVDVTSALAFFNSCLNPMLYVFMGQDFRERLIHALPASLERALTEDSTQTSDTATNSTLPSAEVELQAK
Sequence of FAD-linked sulfhydryl oxidase ALR (P55789 whole entry): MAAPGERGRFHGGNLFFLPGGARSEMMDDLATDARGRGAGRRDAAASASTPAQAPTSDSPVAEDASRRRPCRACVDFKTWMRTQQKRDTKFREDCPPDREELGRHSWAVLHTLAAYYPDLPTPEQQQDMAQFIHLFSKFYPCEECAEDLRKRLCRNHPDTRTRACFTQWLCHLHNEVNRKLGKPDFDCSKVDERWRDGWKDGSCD
Sequence of Disintegrin and metalloproteinase domain-containing protein 17 (P78536 whole entry, the tested form may be a part): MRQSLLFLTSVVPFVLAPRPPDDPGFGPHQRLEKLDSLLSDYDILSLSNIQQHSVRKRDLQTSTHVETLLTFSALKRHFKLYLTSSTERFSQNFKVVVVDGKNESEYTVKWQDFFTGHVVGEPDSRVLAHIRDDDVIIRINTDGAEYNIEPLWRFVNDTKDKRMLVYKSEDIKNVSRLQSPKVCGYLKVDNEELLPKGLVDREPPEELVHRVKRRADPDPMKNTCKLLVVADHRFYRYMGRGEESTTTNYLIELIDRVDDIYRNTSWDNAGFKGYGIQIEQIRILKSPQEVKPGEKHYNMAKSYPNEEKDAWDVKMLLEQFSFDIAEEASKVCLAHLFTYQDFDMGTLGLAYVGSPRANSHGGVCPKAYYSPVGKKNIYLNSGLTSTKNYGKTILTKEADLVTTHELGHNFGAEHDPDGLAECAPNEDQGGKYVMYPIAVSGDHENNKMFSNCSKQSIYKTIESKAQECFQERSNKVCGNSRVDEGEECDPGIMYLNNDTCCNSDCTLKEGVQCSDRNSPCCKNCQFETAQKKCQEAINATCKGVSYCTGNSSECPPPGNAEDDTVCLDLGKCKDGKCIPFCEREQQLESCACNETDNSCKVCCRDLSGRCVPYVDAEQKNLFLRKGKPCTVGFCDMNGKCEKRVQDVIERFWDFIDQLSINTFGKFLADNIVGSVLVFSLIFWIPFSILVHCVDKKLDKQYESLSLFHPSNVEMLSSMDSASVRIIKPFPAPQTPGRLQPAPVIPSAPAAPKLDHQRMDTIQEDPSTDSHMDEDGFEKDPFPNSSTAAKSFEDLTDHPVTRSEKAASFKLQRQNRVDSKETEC
Sequence of Paired box protein Pax-8 (Q06710 whole entry, the tested form may be a part): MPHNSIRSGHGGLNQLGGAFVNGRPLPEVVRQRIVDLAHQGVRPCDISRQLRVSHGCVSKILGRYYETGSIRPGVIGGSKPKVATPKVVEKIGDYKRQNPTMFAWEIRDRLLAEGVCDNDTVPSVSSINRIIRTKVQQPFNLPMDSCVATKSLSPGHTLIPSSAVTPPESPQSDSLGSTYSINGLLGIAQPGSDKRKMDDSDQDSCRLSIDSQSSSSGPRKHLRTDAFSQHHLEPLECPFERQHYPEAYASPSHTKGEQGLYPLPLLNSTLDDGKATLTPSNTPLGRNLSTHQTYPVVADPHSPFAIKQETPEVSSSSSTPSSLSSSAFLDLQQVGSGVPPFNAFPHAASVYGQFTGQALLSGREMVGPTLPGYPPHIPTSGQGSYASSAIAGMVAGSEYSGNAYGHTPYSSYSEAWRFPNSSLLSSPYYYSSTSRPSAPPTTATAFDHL
Sequence of ATP-dependent molecular chaperone HSP82 (C4YTQ8 whole entry): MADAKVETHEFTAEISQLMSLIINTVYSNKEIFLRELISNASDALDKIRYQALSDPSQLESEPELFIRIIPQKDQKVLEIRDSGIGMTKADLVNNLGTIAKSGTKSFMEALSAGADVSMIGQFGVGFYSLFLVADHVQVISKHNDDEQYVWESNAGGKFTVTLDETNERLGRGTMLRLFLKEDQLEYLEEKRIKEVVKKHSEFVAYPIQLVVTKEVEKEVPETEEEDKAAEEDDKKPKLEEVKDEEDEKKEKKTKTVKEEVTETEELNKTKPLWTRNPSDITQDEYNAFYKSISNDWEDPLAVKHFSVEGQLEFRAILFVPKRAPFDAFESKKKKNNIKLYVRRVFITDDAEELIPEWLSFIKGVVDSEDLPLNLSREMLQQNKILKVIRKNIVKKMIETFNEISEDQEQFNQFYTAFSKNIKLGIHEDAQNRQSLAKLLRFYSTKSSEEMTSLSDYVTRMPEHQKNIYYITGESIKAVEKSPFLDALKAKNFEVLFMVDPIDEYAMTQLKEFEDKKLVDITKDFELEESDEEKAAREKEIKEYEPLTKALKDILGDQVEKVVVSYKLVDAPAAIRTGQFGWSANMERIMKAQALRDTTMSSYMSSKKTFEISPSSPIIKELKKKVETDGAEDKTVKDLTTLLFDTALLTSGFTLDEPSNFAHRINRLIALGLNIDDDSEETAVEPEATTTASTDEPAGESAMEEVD
Sequence of Albumin (P02769 whole entry): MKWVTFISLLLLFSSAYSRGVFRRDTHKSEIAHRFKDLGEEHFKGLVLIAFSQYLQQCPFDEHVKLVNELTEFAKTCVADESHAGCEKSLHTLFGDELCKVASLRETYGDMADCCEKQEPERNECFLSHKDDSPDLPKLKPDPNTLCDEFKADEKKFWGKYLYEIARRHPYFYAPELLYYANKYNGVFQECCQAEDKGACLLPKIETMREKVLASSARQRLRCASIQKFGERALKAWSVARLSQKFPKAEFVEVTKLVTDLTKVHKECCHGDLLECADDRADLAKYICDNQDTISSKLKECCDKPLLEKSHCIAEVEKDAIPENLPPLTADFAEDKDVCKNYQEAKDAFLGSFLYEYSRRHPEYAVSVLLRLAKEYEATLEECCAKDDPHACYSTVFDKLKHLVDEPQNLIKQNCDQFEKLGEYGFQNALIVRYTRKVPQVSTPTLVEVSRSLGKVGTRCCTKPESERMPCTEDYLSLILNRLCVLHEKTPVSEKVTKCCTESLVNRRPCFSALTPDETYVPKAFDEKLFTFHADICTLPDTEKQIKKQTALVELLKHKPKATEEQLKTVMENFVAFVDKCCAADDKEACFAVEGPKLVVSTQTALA

SMILES: CCNC(=O)C[C@@H]1CC[C@H]2[C@H](COc3ccc(NC(=O)c4cccc(C(F)(F)F)c4)cc3C(=O)N2C)O1
- AC50 [1]: 3.05 µM (active)

SMILES: COc1ccc(NC(=O)N2CCCCN3[C@@H](CO)[C@@H](c4ccc(C5=CCCC5)cc4)[C@@H]3C2)cc1
- AC50 [2]: 41.6 µM (active)
- AC50 [3]: 64.1 µM (active)
- AC50 [4]: 52.9 µM (active)

SMILES: C[C@H](CO)N1C[C@H](C)[C@@H](CN(C)S(=O)(=O)c2ccccc2)OCCCC[C@H](C)Oc2ccc(NS(=O)(=O)c3ccc(Cl)cc3)cc2C1=O
- AC50 [2]: 32.2 µM (active)
- AC50 [5]: 5.23 µM (active)
- AC50 [4]: 49.8 µM (active)

SMILES: Cc1ccc(NC(=O)c2ccc(OCC3CCCO3)cc2)cc1Cl (stereo unspecified)
- AC50 [6]: 50 µM (active)

SMILES: COc1cc(/C=N/NC(=O)COc2ccc(Cl)cc2)ccc1OS(=O)(=O)c1ccc(C)cc1
- IC50 [7]: > 69.5 µM (inactive)
- IC50 [8]: > 69.5 µM (inactive)
- IC50 [9]: > 94.1 µM (inactive)

SMILES: COc1ccc(C)cc1N=Nc1ccc(O)c2ncccc12
- EC50 [10]: 2.67 µM (active)
- EC50 [11]: > 180 µM (inactive)
- EC50 [12]: 357 nM (active)
- EC50 [13]: 23.6 µM (active)
- EC50 [14]: 11.1 µM (active)
- CC50 [15]: 5.17 µM (active)
- IC50 [16]: > 32 µM
- EC50 [17]: 598 nM (active)
- AC50 [18]: 1.57 µM (active)
- EC50 [19]: 2.92 µM (active)
- IC50 [20]: > 31.5 µM (inactive)
- IC50 [21]: 23.8 µM (inactive)

SMILES: CC1=C(Nc2ccc(Cl)cc2)C(=O)c2ccccc2C1=O
- AC50 [22]: 802 nM (active)
- AC50 [23]: > 70 µM (inactive)
- AC50 [24]: 40.7 µM (active)

SMILES: Cc1ccc(Nc2ccc(C(=O)O)cc2N)cc1
- Ki [25]: > 66.7 µM (inactive)
- EC50 [26]: > 53 µM (inactive)
- AC50 [27]: 246 nM (active)
- IC50 [28]: > 47.1 µM (inactive)

SMILES: CCCn1/c(=N/C(=O)c2ccco2)c(C(=O)OCC)cc2c(=O)n3ccccc3nc21
- EC50 [29]: > 67.5 µM (inactive)
